Assay results reported in PubChem BioAssay (NCI).
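Test compounds were applied to cells in 96-well plates for 48 hours at 5 doses. TGI: total growth inhibition.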 Where a SMILES comes first, the peptide text is derived from it. The star is where a group is joined. Boc = CC(C)(C)OC(=O)*; OBn = c1ccc(CO*)cc1

These compounds were tested on OVCAR-8 ovarian (assay: NCI-60 cell line screen, 48 h).

Row | Compound | TGI [µM]
1 | COC(=O)C(C)NP(=O)(N1CC1)N1CC1 (stereo unspecified) | > 100
2 | Ic1ncnc2c1ncn2C1CCCO1 (stereo unspecified) | > 100
3 | CC12CCC3[C@@H](CC3(C)C)C(O)(CCC1=O)C2 (stereo partly specified) | > 100
4 | COc1cc(OCc2ccc3nc(-c4ccccc4)c(Cl)nc3c2)cc(OC)c1OC | > 100
5 | O=[n+]1c2ccccc2n([O-])c2ccccc21 | > 100
6 | CC(C)C(NC(=O)C(Cc1ccccc1)NC(=O)OC(C)(C)C)C(=O)NCC(=O)OCc1ccccc1 (stereo not drawn) (Boc-Phe-Val-Gly-OBn; configuration not given here) | 35.6

The compounds below were run on UACC-62 melanoma (assay: NCI-60 cell line screen, 48 h).

Row | Compound | TGI [µM]
7 | CCN(CC)c1cc2c3c(c1)CCCN3CCC2 | > 10
8 | O=c1[nH]n(Cc2ccccc2Cl)c2ccc([N+](=O)[O-])cc12 | > 100
9 | CCOC(=O)CCC(NC(=O)c1ccc(CNc2nc3ccccc3nc2C(=O)OCC)cc1)C(=O)OCC (stereo unspecified) | > 100
10 | COC1CC(C)C(OC)C2=CC(=O)C=C(NC(=O)/C(C)=C/C=C\C(C)C(OC(N)=O)/C(C)=C\C(C)C1OC)C2=O (stereo unspecified) | 14.8
11 | O=C1c2ccccc2C(O)(C(=O)O)C1(O)CC=C(Cl)Cl (stereo unspecified) | > 125
12 | COc1cc(S(=O)(=O)Nc2nc(-c3ccc(N4C(=O)CSC4c4cccs4)cc3)cs2)ccc1Cl (stereo unspecified) | > 100
13 | COC(=O)C(C)NP(=O)(N1CC1)N1CC1 (stereo unspecified) | > 100
14 | Ic1ncnc2c1ncn2C1CCCO1 (stereo unspecified) | > 100
15 | CC12CCC3[C@@H](CC3(C)C)C(O)(CCC1=O)C2 (stereo partly specified) | > 100
16 | COc1cc(OCc2ccc3nc(-c4ccccc4)c(Cl)nc3c2)cc(OC)c1OC | > 100
17 | O=[n+]1c2ccccc2n([O-])c2ccccc21 | > 100
18 | CC(C)C(NC(=O)C(Cc1ccccc1)NC(=O)OC(C)(C)C)C(=O)NCC(=O)OCc1ccccc1 (stereo not drawn) (Boc-Phe-Val-Gly-OBn; configuration not given here) | 30.9

Each compound was assayed on IGROV1 ovarian (assay: NCI-60 cell line screen, 48 h).

Row | Compound | TGI [µM]
19 | CCN(CC)c1cc2c3c(c1)CCCN3CCC2 | > 10
20 | O=c1[nH]n(Cc2ccccc2Cl)c2ccc([N+](=O)[O-])cc12 | > 100
21 | CCOC(=O)CCC(NC(=O)c1ccc(CNc2nc3ccccc3nc2C(=O)OCC)cc1)C(=O)OCC (stereo unspecified) | > 100
22 | COC1CC(C)C(OC)C2=CC(=O)C=C(NC(=O)/C(C)=C/C=C\C(C)C(OC(N)=O)/C(C)=C\C(C)C1OC)C2=O (stereo unspecified) | 17.8
23 | O=C1c2ccccc2C(O)(C(=O)O)C1(O)CC=C(Cl)Cl (stereo unspecified) | > 125
24 | COc1cc(S(=O)(=O)Nc2nc(-c3ccc(N4C(=O)CSC4c4cccs4)cc3)cs2)ccc1Cl (stereo unspecified) | > 100
25 | COC(=O)C(C)NP(=O)(N1CC1)N1CC1 (stereo unspecified) | > 100
26 | Ic1ncnc2c1ncn2C1CCCO1 (stereo unspecified) | > 100
27 | CC12CCC3[C@@H](CC3(C)C)C(O)(CCC1=O)C2 (stereo partly specified) | > 100
28 | COc1cc(OCc2ccc3nc(-c4ccccc4)c(Cl)nc3c2)cc(OC)c1OC | > 100
29 | O=[n+]1c2ccccc2n([O-])c2ccccc21 | > 100
30 | CC(C)C(NC(=O)C(Cc1ccccc1)NC(=O)OC(C)(C)C)C(=O)NCC(=O)OCc1ccccc1 (stereo not drawn) (Boc-Phe-Val-Gly-OBn; configuration not given here) | 27.8

These compounds were tested on HL-60(TB) leukemia (assay: NCI-60 cell line screen, 48 h).

Row | Compound | TGI [µM]
31 | CCN(CC)c1cc2c3c(c1)CCCN3CCC2 | > 10
32 | O=c1[nH]n(Cc2ccccc2Cl)c2ccc([N+](=O)[O-])cc12 | > 100
33 | COC1CC(C)C(OC)C2=CC(=O)C=C(NC(=O)/C(C)=C/C=C\C(C)C(OC(N)=O)/C(C)=C\C(C)C1OC)C2=O (stereo unspecified) | 1.13
34 | O=C1c2ccccc2C(O)(C(=O)O)C1(O)CC=C(Cl)Cl (stereo unspecified) | > 125
35 | COc1cc(S(=O)(=O)Nc2nc(-c3ccc(N4C(=O)CSC4c4cccs4)cc3)cs2)ccc1Cl (stereo unspecified) | > 100
36 | COC(=O)C(C)NP(=O)(N1CC1)N1CC1 (stereo unspecified) | > 100
37 | Ic1ncnc2c1ncn2C1CCCO1 (stereo unspecified) | > 100
38 | CC12CCC3[C@@H](CC3(C)C)C(O)(CCC1=O)C2 (stereo partly specified) | > 100
39 | COc1cc(OCc2ccc3nc(-c4ccccc4)c(Cl)nc3c2)cc(OC)c1OC | > 100
40 | O=[n+]1c2ccccc2n([O-])c2ccccc21 | 72.4
41 | CC(C)C(NC(=O)C(Cc1ccccc1)NC(=O)OC(C)(C)C)C(=O)NCC(=O)OCc1ccccc1 (stereo not drawn) (Boc-Phe-Val-Gly-OBn; configuration not given here) | 34.4

The compounds below were run on PC-3 prostate (assay: NCI-60 cell line screen, 48 h).

Row | Compound | TGI [µM]
42 | CCN(CC)c1cc2c3c(c1)CCCN3CCC2 | > 10
43 | CCOC(=O)CCC(NC(=O)c1ccc(CNc2nc3ccccc3nc2C(=O)OCC)cc1)C(=O)OCC (stereo unspecified) | > 100
44 | COC1CC(C)C(OC)C2=CC(=O)C=C(NC(=O)/C(C)=C/C=C\C(C)C(OC(N)=O)/C(C)=C\C(C)C1OC)C2=O (stereo unspecified) | 23.6
45 | COc1cc(S(=O)(=O)Nc2nc(-c3ccc(N4C(=O)CSC4c4cccs4)cc3)cs2)ccc1Cl (stereo unspecified) | > 100
46 | CC12CCC3[C@@H](CC3(C)C)C(O)(CCC1=O)C2 (stereo partly specified) | > 100
47 | COc1cc(OCc2ccc3nc(-c4ccccc4)c(Cl)nc3c2)cc(OC)c1OC | > 100
48 | O=[n+]1c2ccccc2n([O-])c2ccccc21 | > 100
49 | CC(C)C(NC(=O)C(Cc1ccccc1)NC(=O)OC(C)(C)C)C(=O)NCC(=O)OCc1ccccc1 (stereo not drawn) (Boc-Phe-Val-Gly-OBn; configuration not given here) | 29.5

What follows are compounds tested on MALME-3M melanoma (assay: NCI-60 cell line screen, 48 h).

Row | Compound | TGI [µM]
50 | CCN(CC)c1cc2c3c(c1)CCCN3CCC2 | > 10
51 | O=c1[nH]n(Cc2ccccc2Cl)c2ccc([N+](=O)[O-])cc12 | > 100
52 | CCOC(=O)CCC(NC(=O)c1ccc(CNc2nc3ccccc3nc2C(=O)OCC)cc1)C(=O)OCC (stereo unspecified) | > 100
53 | COC1CC(C)C(OC)C2=CC(=O)C=C(NC(=O)/C(C)=C/C=C\C(C)C(OC(N)=O)/C(C)=C\C(C)C1OC)C2=O (stereo unspecified) | 12
54 | O=C1c2ccccc2C(O)(C(=O)O)C1(O)CC=C(Cl)Cl (stereo unspecified) | > 125
55 | COc1cc(S(=O)(=O)Nc2nc(-c3ccc(N4C(=O)CSC4c4cccs4)cc3)cs2)ccc1Cl (stereo unspecified) | > 100
56 | COC(=O)C(C)NP(=O)(N1CC1)N1CC1 (stereo unspecified) | > 100
57 | Ic1ncnc2c1ncn2C1CCCO1 (stereo unspecified) | > 100
58 | CC12CCC3[C@@H](CC3(C)C)C(O)(CCC1=O)C2 (stereo partly specified) | > 100
59 | COc1cc(OCc2ccc3nc(-c4ccccc4)c(Cl)nc3c2)cc(OC)c1OC | 96.1
60 | O=[n+]1c2ccccc2n([O-])c2ccccc21 | > 100
61 | CC(C)C(NC(=O)C(Cc1ccccc1)NC(=O)OC(C)(C)C)C(=O)NCC(=O)OCc1ccccc1 (stereo not drawn) (Boc-Phe-Val-Gly-OBn; configuration not given here) | 37.5

These compounds were tested on NCI-H226 lung (assay: NCI-60 cell line screen, 48 h).

Row | Compound | TGI [µM]
62 | CCN(CC)c1cc2c3c(c1)CCCN3CCC2 | > 10
63 | O=c1[nH]n(Cc2ccccc2Cl)c2ccc([N+](=O)[O-])cc12 | > 100
64 | CCOC(=O)CCC(NC(=O)c1ccc(CNc2nc3ccccc3nc2C(=O)OCC)cc1)C(=O)OCC (stereo unspecified) | > 100
65 | COC1CC(C)C(OC)C2=CC(=O)C=C(NC(=O)/C(C)=C/C=C\C(C)C(OC(N)=O)/C(C)=C\C(C)C1OC)C2=O (stereo unspecified) | 22.4
66 | O=C1c2ccccc2C(O)(C(=O)O)C1(O)CC=C(Cl)Cl (stereo unspecified) | > 125
67 | COc1cc(S(=O)(=O)Nc2nc(-c3ccc(N4C(=O)CSC4c4cccs4)cc3)cs2)ccc1Cl (stereo unspecified) | > 100
68 | Ic1ncnc2c1ncn2C1CCCO1 (stereo unspecified) | > 100
69 | CC12CCC3[C@@H](CC3(C)C)C(O)(CCC1=O)C2 (stereo partly specified) | > 100
70 | O=[n+]1c2ccccc2n([O-])c2ccccc21 | > 100

These compounds were tested on MDA-MB-435 (assay: NCI-60 cell line screen, 48 h).

Row | Compound | TGI [µM]
71 | CCN(CC)c1cc2c3c(c1)CCCN3CCC2 | > 10
72 | O=c1[nH]n(Cc2ccccc2Cl)c2ccc([N+](=O)[O-])cc12 | > 100
73 | CCOC(=O)CCC(NC(=O)c1ccc(CNc2nc3ccccc3nc2C(=O)OCC)cc1)C(=O)OCC (stereo unspecified) | 50.3
74 | COc1cc(S(=O)(=O)Nc2nc(-c3ccc(N4C(=O)CSC4c4cccs4)cc3)cs2)ccc1Cl (stereo unspecified) | > 100
75 | CC12CCC3[C@@H](CC3(C)C)C(O)(CCC1=O)C2 (stereo partly specified) | > 100
76 | COc1cc(OCc2ccc3nc(-c4ccccc4)c(Cl)nc3c2)cc(OC)c1OC | > 100
77 | O=[n+]1c2ccccc2n([O-])c2ccccc21 | > 100
78 | CC(C)C(NC(=O)C(Cc1ccccc1)NC(=O)OC(C)(C)C)C(=O)NCC(=O)OCc1ccccc1 (stereo not drawn) (Boc-Phe-Val-Gly-OBn; configuration not given here) | 21.9

What follows are compounds tested on MOLT-4 leukemia (assay: NCI-60 cell line screen, 48 h).

Row | Compound | TGI [µM]
79 | CCN(CC)c1cc2c3c(c1)CCCN3CCC2 | > 10
80 | O=c1[nH]n(Cc2ccccc2Cl)c2ccc([N+](=O)[O-])cc12 | > 100
81 | CCOC(=O)CCC(NC(=O)c1ccc(CNc2nc3ccccc3nc2C(=O)OCC)cc1)C(=O)OCC (stereo unspecified) | > 100
82 | COC1CC(C)C(OC)C2=CC(=O)C=C(NC(=O)/C(C)=C/C=C\C(C)C(OC(N)=O)/C(C)=C\C(C)C1OC)C2=O (stereo unspecified) | 1.04
83 | O=C1c2ccccc2C(O)(C(=O)O)C1(O)CC=C(Cl)Cl (stereo unspecified) | > 125
84 | COc1cc(S(=O)(=O)Nc2nc(-c3ccc(N4C(=O)CSC4c4cccs4)cc3)cs2)ccc1Cl (stereo unspecified) | > 100
85 | COC(=O)C(C)NP(=O)(N1CC1)N1CC1 (stereo unspecified) | > 100
86 | Ic1ncnc2c1ncn2C1CCCO1 (stereo unspecified) | > 100
87 | CC12CCC3[C@@H](CC3(C)C)C(O)(CCC1=O)C2 (stereo partly specified) | > 100
88 | COc1cc(OCc2ccc3nc(-c4ccccc4)c(Cl)nc3c2)cc(OC)c1OC | > 100
89 | O=[n+]1c2ccccc2n([O-])c2ccccc21 | 81.2
90 | CC(C)C(NC(=O)C(Cc1ccccc1)NC(=O)OC(C)(C)C)C(=O)NCC(=O)OCc1ccccc1 (stereo not drawn) (Boc-Phe-Val-Gly-OBn; configuration not given here) | 39.7

Each compound was assayed on T-47D breast (assay: NCI-60 cell line screen, 48 h).

Row | Compound | TGI [µM]
91 | CCN(CC)c1cc2c3c(c1)CCCN3CCC2 | > 10
92 | COc1cc(S(=O)(=O)Nc2nc(-c3ccc(N4C(=O)CSC4c4cccs4)cc3)cs2)ccc1Cl (stereo unspecified) | > 100
93 | CC12CCC3[C@@H](CC3(C)C)C(O)(CCC1=O)C2 (stereo partly specified) | > 100
94 | COc1cc(OCc2ccc3nc(-c4ccccc4)c(Cl)nc3c2)cc(OC)c1OC | > 100
95 | O=[n+]1c2ccccc2n([O-])c2ccccc21 | > 100
96 | CC(C)C(NC(=O)C(Cc1ccccc1)NC(=O)OC(C)(C)C)C(=O)NCC(=O)OCc1ccccc1 (stereo not drawn) (Boc-Phe-Val-Gly-OBn; configuration not given here) | 36.7
